Patent US6960586B2, “Imidazole derivatives, process for their preparation and their use” (Takeda Pharmaceutical Company Limited, priority 2000, dated 2005)

Experiments:
[1] = biological target: T1, Rat Steroid C17,20-lyase (Rattus norvegicus, UniProt P11715); assay: Assay of inhibitory activity on rat steroid C17,20-lyase (testis microsomes); type: biochemical; settings: 10 nM [1,2-3H]-17α-hydroxyprogesterone, 37° C., 7 minutes
T1 construct: Testes were excised from 10- to 13-week-old male SD rats, homogenized, and centrifuged to give microsomes; from tissue; host or cells: testis microsomes of male SD rats
T1 sequence (P11715 1-507): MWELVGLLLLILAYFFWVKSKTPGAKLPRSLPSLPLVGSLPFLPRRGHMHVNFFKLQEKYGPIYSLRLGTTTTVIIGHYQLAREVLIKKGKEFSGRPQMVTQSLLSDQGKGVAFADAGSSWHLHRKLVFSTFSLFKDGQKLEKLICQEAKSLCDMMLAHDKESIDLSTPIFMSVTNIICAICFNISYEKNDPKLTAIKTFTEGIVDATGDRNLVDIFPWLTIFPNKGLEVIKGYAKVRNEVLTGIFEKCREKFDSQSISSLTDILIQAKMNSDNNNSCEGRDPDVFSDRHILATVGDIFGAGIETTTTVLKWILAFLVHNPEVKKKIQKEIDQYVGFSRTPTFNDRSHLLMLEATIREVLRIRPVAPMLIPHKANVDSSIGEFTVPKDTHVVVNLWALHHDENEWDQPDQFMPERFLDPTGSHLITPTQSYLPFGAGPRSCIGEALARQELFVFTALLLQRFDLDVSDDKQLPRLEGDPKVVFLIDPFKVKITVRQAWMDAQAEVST
Method: Assay of Inhibitory Activity on Rat Steroid C17,20-lyase
The activity was determined according to The Prostate, vol. 26, 140-150 (1995).
Testes were excised from 10- to 13-week-old male SD rats, homogenized, and centrifuged to give microsomes. [1,2-^3H]-17α-hydroxyprogesterone having a final concentration of 10 nM, NADPH solution and test compounds were dissolved in 10 μl of 100 mM phosphate buffer (pH 7.4) and microsome protein (7 μg/10 μl) was added. The reaction mixture was incubated at 37° C. for 7 minutes. Ethyl acetate (40 μl) was added and the mixture was centrifuged. The substrate and the products (androstenedione and testosterone) in the supernatant were separated by silica gel thin layer chromatography (TLC). The spots were detected and quantitatively determined by BAS 2000 Bioimage analyzer. The concentration of the test compounds necessary to reduce the amount of the products by 50% (IC50) relative to the amount of the products without test compound (control) as 100% was calculated, and shown in Table 1.

[2] = biological target: T2, human CYP3A4 (Homo sapiens, UniProt P08684); assay: Assay of human CYP3A4-inhibitory activity; type: in vitro ADME; settings: testosterone 100 μM as substrate, 6β-hydroxytestosterone formation, 37° C., 30 min
T2 construct: purchased GENTEST
Method: Assay of Human CYP3A4-Inhibitory Activity
Performed as in the following according to Journal of Biological Chemistry, vol. 256, 11937 (1983).
A phosphate buffer solution (50 mM, pH 7.4) containing testosterone (final concentration 100 μM, hereinafter the same), human CYP3A4 (10 pmol/ml, manufactured by GENTEST), NADPH producing system (0.5 mM NADP, 5 mM glucose-6-phosphate, 5 mM magnesium chloride, 1.5 units/ml glucose-6-phosphate dehydrogenase) and the test compound was incubated at 37° C. for 30 min. Acetonitrile was added to the reaction mixture and the mixture was stirred and centrifuged. The 6β-hydroxytestosterone in the obtained supernatant was analyzed by high performance liquid chromatography. The concentration (IC50) of the compound necessary for 50% inhibition was calculated taking the production amount without addition of the test compound as 100%.

[3] = system: testosterone synthesis; assay: Assay of inhibitory activity on testosterone synthesis in rats; type: in vivo, rat; settings: 25 mg/kg orally, male SD rats, serum testosterone two hours after administration, relative to control group
Method: Assay of Inhibitory Activity on Testosterone Synthesis in Rats
Test compounds (25 mg/kg) were orally administered to 9-week-old male SD (Sprague Dawley) rats. Two hours after administration of the compounds, blood was drawn and testosterone concentration in the obtained serum was measured by radioimmunoassay. The percentage (T/C, %) of the testosterone concentration of test compounds administration group to that of the control group was calculated, and taken as the inhibitory activity on testosterone synthesis.

T2 sequence (P08684 whole entry): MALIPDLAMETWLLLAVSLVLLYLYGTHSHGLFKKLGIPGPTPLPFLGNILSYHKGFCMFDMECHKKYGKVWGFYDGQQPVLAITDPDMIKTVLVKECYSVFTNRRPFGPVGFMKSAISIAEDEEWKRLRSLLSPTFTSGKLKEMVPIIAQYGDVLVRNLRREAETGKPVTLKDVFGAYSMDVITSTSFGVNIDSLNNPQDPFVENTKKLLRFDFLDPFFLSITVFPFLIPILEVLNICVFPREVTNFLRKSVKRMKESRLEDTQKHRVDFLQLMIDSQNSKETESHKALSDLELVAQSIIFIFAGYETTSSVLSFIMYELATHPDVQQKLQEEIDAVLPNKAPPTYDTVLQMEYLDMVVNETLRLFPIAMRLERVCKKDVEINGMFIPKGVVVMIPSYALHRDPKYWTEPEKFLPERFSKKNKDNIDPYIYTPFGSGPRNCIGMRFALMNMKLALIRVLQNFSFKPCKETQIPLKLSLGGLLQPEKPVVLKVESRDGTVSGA

Compound | IC50 [1] [µM] | IC50 [2] [µM] | Testosterone synthesis inhibitory activity (T/C, %) [3] [%]
CC(C)C(O)(c1ccc2c3c(ccc2c1)C(=O)NC3)c1c[nH]cn1 (stereo not shown) [Example 1, 7-[1-hydroxy-1-(1H-imidazol-4-yl)-2-methylpropyl]-1,2-dihydro-3H-benzo[e]isoindol-3-one] | < 0.01 | – | 6.0
CC(C)C(O)(c1ccc2c3c(ccc2c1)C(=O)N(C)C3)c1c[nH]cn1 (single isomer, unassigned; (-)) [Example 16, (−)-7-[1-hydroxy-1-(1H-imidazol-4-yl)-2-methylpropyl]-2-methyl-1,2-dihydro-3H-benzo[e]isoindol-3-one] | – | – | 4.3

Now from value to molecule, other results behind:

IC50 [1] [µM] | IC50 [2] [µM] | Compound | Testosterone synthesis inhibitory activity (T/C, %) [3] [%]
0.042 | > 10 | CC(C)C(O)(c1ccc2cc3c(cc2c1)CNC3=O)c1c[nH]cn1 (stereo not shown) [Example 10, 6-[1-hydroxy-1-(1H-imidazol-4-yl)-2-methylpropyl]-2,3-dihydro-1H-benzo[f]isoindol-1-one] | –
0.023 | > 10 | CCN1Cc2c(ccc3cc(C(O)(c4c[nH]cn4)C(C)C)ccc23)C1=O (stereo not shown) [Example 3, 2-ethyl-7-[1-hydroxy-1-(1H-imidazol-4-yl)-2-methylpropyl]-1,2-dihydro-3-benzo[e]isoindol-3-one] | –
0.015 | > 10 | CC(C)C(O)(c1ccc2c3c(ccc2c1)C(=O)N(C)C3)c1c[nH]cn1 (stereo not shown) [Example 2, 7-[1-hydroxy-1-(1H-imidazol-4-yl)-2-methylpropyl]-2-methyl-1,2-dihydro-3H-benzo[e]isoindol-3-one] | –
0.022 | – | CC(C)CC(O)(c1ccc2c3c(ccc2c1)C(=O)N(C)C3)c1c[nH]cn1 (stereo not shown) [Example 14, 7-[1-hydroxy-1-(1H-imidazol-4-yl)-3-methylbutyl]-2-methyl-1,2-dihydro-3H-benzo[e]isoindol-3-one] | –
